Values quoted from earlier work in patent US20230139125A1, “DIETARY SUPPLEMENT FOR IMPROVING BRAIN PERFORMANCE” (priority 2021, published 2023).

Key:
[1] = test system: age-related memory loss; conditions: end of six-month period; participants with relatively low memory scores at start; compared to placebo
[2] = test system: brain-derived neurotrophic factor (i.e. BDNF); conditions: ingesting small amounts

In the case of Phosphatidylserine [PS], the memory [1] is given as “significant improvement in memory”.

For chlorogenic acids, the “brain-derived neurotrophic factor (i.e. BDNF)” value [2] is listed as “not obtained”.
